According to PubChem BioAssay AID2060336 (Molecular Pharmacology Branch, DTP, NCI, 2025):

Tested on: 958767-090-R-J1-PDC spheroid growth
Assay: Anticancer human tumor 958767-090-R-J1-PDC patient-derived head and neck squamous carcinoma cell line growth inhibition [IpAb]
Conditions: spheroids with HUVEC and MSC; for IC50: curve of first compound; for viability, T/C: stronger effect = lower value
In short: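 Spheroids of 60% malignant cells, 25% HUVEC and 15% MSC were exposed to targeted agents combined with ipatasertib or abemaciclib. Doses started at or near clinical Cmax (10 microM when unknown) and fell in half-log steps.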
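Further: spheroids exposed to agents for 7 days.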
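Wherever viability, T/C is given: 100% = DMSO vehicle control wells.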

## Cc1nc(NC(=O)N2CCCC2C(N)=O)sc1-c1ccnc(C(C)(C)C(F)(F)F)c1 (stereo not given) + CCN1CCN(Cc2ccc(Nc3ncc(F)c(-c4cc(F)c5nc(C)n(C(C)C)c5c4)n3)nc2)CC1
Second compound 0.01 µM
  IC50: 171 nM
Second compound 0.0316 µM
  IC50: 59 nM
Second compound 0.1 µM
  IC50: < 31.6 nM
Second compound 0.316 µM
  IC50: < 31.6 nM
Second compound 1 µM
  IC50: 141 nM
Second compound 0.01 µM, first compound 0.0316 µM
  viability, T/C: 65.3%
Second compound 0.01 µM, first compound 0.1 µM
  viability, T/C: 56.4%
Second compound 0.01 µM, first compound 0.316 µM
  viability, T/C: 42.7%
Second compound 0.01 µM, first compound 1 µM
  viability, T/C: 31.7%
Second compound 0.01 µM, first compound 3.16 µM
  viability, T/C: 19.3%
Second compound 0.01 µM, first compound 10 µM
  viability, T/C: 11.2%
Second compound 0.0316 µM, first compound 0.0316 µM
  viability, T/C: 57.6%
Second compound 0.0316 µM, first compound 0.1 µM
  viability, T/C: 40.5%
Second compound 0.0316 µM, first compound 0.316 µM
  viability, T/C: 36.4%
Second compound 0.0316 µM, first compound 1 µM
  viability, T/C: 27.2%
Second compound 0.0316 µM, first compound 3.16 µM
  viability, T/C: 15.9%
Second compound 0.0316 µM, first compound 10 µM
  viability, T/C: 9.45%
Second compound 0.1 µM, first compound 0.0316 µM
  viability, T/C: 49.9%
Second compound 0.1 µM, first compound 0.1 µM
  viability, T/C: 43.3%
Second compound 0.1 µM, first compound 0.316 µM
  viability, T/C: 34.9%
Second compound 0.1 µM, first compound 1 µM
  viability, T/C: 24.9%
Second compound 0.1 µM, first compound 3.16 µM
  viability, T/C: 15.8%
Second compound 0.1 µM, first compound 10 µM
  viability, T/C: 9.36%
Second compound 0.316 µM, first compound 0.0316 µM
  viability, T/C: 39.5%
Second compound 0.316 µM, first compound 0.1 µM
  viability, T/C: 39.3%
Second compound 0.316 µM, first compound 0.316 µM
  viability, T/C: 27.6%
Second compound 0.316 µM, first compound 1 µM
  viability, T/C: 20.7%
Second compound 0.316 µM, first compound 3.16 µM
  viability, T/C: 17.1%
Second compound 0.316 µM, first compound 10 µM
  viability, T/C: 10.8%
Second compound 1 µM, first compound 0.0316 µM
  viability, T/C: 62.6%
Second compound 1 µM, first compound 0.1 µM
  viability, T/C: 56.2%
Second compound 1 µM, first compound 0.316 µM
  viability, T/C: 38.3%
Second compound 1 µM, first compound 1 µM
  viability, T/C: 31.5%
Second compound 1 µM, first compound 3.16 µM
  viability, T/C: 19.9%
Second compound 1 µM, first compound 10 µM
  viability, T/C: 13.2%

## CC(=O)c1c(C)c2cnc(Nc3ccc(N4CCNCC4)cn3)nc2n(C2CCCC2)c1=O + CC(C)NCC(C(=O)N1CCN(c2ncnc3c2C(C)CC3O)CC1)c1ccc(Cl)cc1
Second compound 0.1 µM
  IC50: > 300 nM
Second compound 0.316 µM
  IC50: 300 nM
Second compound 1 µM
  IC50: < 0.949 nM
Second compound 3.16 µM
  IC50: < 0.949 nM
Second compound 10 µM
  IC50: < 0.949 nM
Second compound 0.1 µM, first compound 0.000949 µM
  viability, T/C: 83.8%
Second compound 0.1 µM, first compound 0.003 µM
  viability, T/C: 70.5%
Second compound 0.1 µM, first compound 0.00949 µM
  viability, T/C: 68.7%
Second compound 0.1 µM, first compound 0.03 µM
  viability, T/C: 67.7%
Second compound 0.1 µM, first compound 0.0949 µM
  viability, T/C: 53.4%
Second compound 0.1 µM, first compound 0.3 µM
  viability, T/C: 64.8%
Second compound 0.316 µM, first compound 0.000949 µM
  viability, T/C: 56.4%
Second compound 0.316 µM, first compound 0.003 µM
  viability, T/C: 65.3%
Second compound 0.316 µM, first compound 0.00949 µM
  viability, T/C: 54.2%
Second compound 0.316 µM, first compound 0.03 µM
  viability, T/C: 46.1%
Second compound 0.316 µM, first compound 0.0949 µM
  viability, T/C: 57.3%
Second compound 0.316 µM, first compound 0.3 µM
  viability, T/C: 52.5%
Second compound 1 µM, first compound 0.000949 µM
  viability, T/C: 48.1%
Second compound 1 µM, first compound 0.003 µM
  viability, T/C: 46.2%
Second compound 1 µM, first compound 0.00949 µM
  viability, T/C: 49.8%
Second compound 1 µM, first compound 0.03 µM
  viability, T/C: 41.8%
Second compound 1 µM, first compound 0.0949 µM
  viability, T/C: 47.2%
Second compound 1 µM, first compound 0.3 µM
  viability, T/C: 40.2%
Second compound 3.16 µM, first compound 0.000949 µM
  viability, T/C: 43.1%
Second compound 3.16 µM, first compound 0.003 µM
  viability, T/C: 43.6%
Second compound 3.16 µM, first compound 0.00949 µM
  viability, T/C: 39.1%
Second compound 3.16 µM, first compound 0.03 µM
  viability, T/C: 41.5%
Second compound 3.16 µM, first compound 0.0949 µM
  viability, T/C: 37.7%
Second compound 3.16 µM, first compound 0.3 µM
  viability, T/C: 31.2%
Second compound 10 µM, first compound 0.000949 µM
  viability, T/C: 41.4%
Second compound 10 µM, first compound 0.003 µM
  viability, T/C: 41.7%
Second compound 10 µM, first compound 0.00949 µM
  viability, T/C: 42.9%
Second compound 10 µM, first compound 0.03 µM
  viability, T/C: 35.5%
Second compound 10 µM, first compound 0.0949 µM
  viability, T/C: 30.7%
Second compound 10 µM, first compound 0.3 µM
  viability, T/C: 25%
